Source: article PMC6271077, “Synthesis, Anticancer and Antibacterial Activity of Salinomycin N-Benzyl Amides” (Molecules, 2014)

Columns and labels:
[1] = tested on: HL-60, HL-60/vinc, LoVo, LoVo/dx; experiment: Antiproliferative assays, all four cancer cell lines (range given); format: cell-based; details: Homo sapiens, read-out: IC50 (range over the cancer cell lines)
Text: Four human cancer cell lines and one normal cell line were used to evaluate anticancer activity of SAL and its N-benzyl amides: human acute promyelocytic leukemia (HL-60) and its vincristine resistant subline (HL-60/vinc), human colon adenocarcinoma cell lines sensitive (LoVo) and resistant to doxorubicin (LoVo/dx) as well as also normal murine embryonic fibroblast cell line (BALB/3T3). The BALB/3T3 cell line was purchased from the American Type Culture Collection (ATCC Rockville, MD, USA), HL-60 cell line from European Type Culture Collection by courtesy of Professor Spik and Dr Mazurier (Laboratory of Biological Chemistry USTL, Lille, France) and HL-60/vinc, LoVo and LoVo/dx by courtesy of Prof. E. Borowski (Technical University of Gdańsk, Gdańsk, Poland). All the cell lines are maintained in the Institute of Immunology and Experimental Therapy (IIET), Wrocław, Poland.
Human leukemia cells were cultured in ISCOVE medium (IIET, Wroclaw, Polond) containing 10% fetal bovine serum and 2 mM L-glutamine (Sigma Aldrich) and 1 µg/100 mL […] for HL-60/vinc (Sigma Aldrich). Human colon adenocarcinoma cell lines were cultured in mixture of OptiMEM and RPMI 1640 (1:1) medium (IIET) supplemented with 5% fetal bovine serum (Thermo Fisher Scientific, Waltham, MA, USA), 2 mM L-glutamine, 1 mM sodium pyruvate (Sigma Aldrich) and 10 µg/100 mL doxorubicin for LoVo/dx (Sigma Aldrich). Murine embryonic fibroblast cells were cultured in Dulbecco medium (Gibco, Darmstadt, Germany) supplemented with 10% fetal bovine serum (Thermo Fisher Scientific) and 2 mM L-glutamine (Sigma Aldrich). All culture media contained antibiotics: 100 U/mL penicillin (Sigma Aldrich) and 100 µg/mL streptomycin (Polfa-Tarchomin, City, Poland). All cell lines were cultured during entire experiment in humid atmosphere at 37 °C and 5% CO2.
Twenty four hours before adding the tested compounds all cell lines were seeded in 96-well plates (Sarstedt, Nümbrecht, Germany) in appropriate media with 10^4 cells per well. All cell lines were exposed to each tested agent at four different concentrations from the range 100 to 0.1 µg/mL for 72 h. The cells were also exposed to the reference drugs: cisplatin (Accord, London, UK) and doxorubicin hydrochloride (Fluka, St. Louis, MO, USA). Additionally, all cell lines were exposed to DMSO (the solvent used for tested compounds, Sigma Aldrich) at the concentrations corresponding to those in the tested agent dilutions. For adherent cells sulphorodamine B assay was performed and MTT assay for leukemia cells.
After 72 h of incubation with tested compounds the cells were fixed in situ by gently adding of 50 µL per well of cold 50% trichloroacetic acid TCA (Avantor Performance Materials, City, Poland) and were incubated at 4 °C for 1 h. Then the wells were washed four times with water and air-dried. Next, 50 µL of 0.2% solution of sulphorodamine B (Sigma Aldrich) in 1% acetic acid (Avantor Performance Materials) were added to each well and plates were incubated at room temperature for 0.5 h. After incubation time, unbound dye was removed by washing plates four times with 1% acetic acid, whereas the stain bound to cells was solubilized with 150 µL of 10 mM Tris base (Sigma Aldrich). Absorbance of each solution was read at Synergy H4 photometer (BioTek Instruments, Winooski, VT, USA) at 540 nm wavelength.
Proliferation inhibition of leukemia cells by tested compounds was measured by means of MTT assay. […]

[2] = tested on: MRSA; experiment: MIC microdilution, MRSA strains overall (range given); format: cell-based, Staphylococcus aureus; details: hospital MRSA strains

Row | Structure (SMILES) | IC50 [1] [nM] | MIC (range over MRSA strains) [2] [µg/mL]
1 | CC[C@@H](C(=O)[C@@H](C)[C@@H](O)[C@H](C)[C@@H]1O[C@@H]([C@@H](CC)C(=O)O)CC[C@@H]1C)[C@H]1O[C@]2(C=C[C@@H](O)[C@]3(CC[C@@](C)([C@H]4CC[C@](O)(CC)[C@H](C)O4)O3)O2)[C@H](C)C[C@@H]1C [SAL, Salinomycin] | 330 to 2330 | 
2 | CC[C@H](C(=O)NCc1ccc(F)cc1)C1CC[C@H](C)C([C@@H](C)[C@H](O)[C@H](C)C(=O)[C@H](CC)C2O[C@]3(C=C[C@@H](O)C4(CC[C@@](C)(C5CC[C@](O)(CC)[C@H](C)O5)O4)O3)[C@H](C)C[C@@H]2C)O1 (some centres unmarked) [F-p] |  | 16 to 64
